Experimental data from ChEMBL document CHEMBL5096164, “In Vivo Profiling of a Natural Alkaloid, Anatabine, in Rodents: Pharmacokinetics and Anti-Inflammatory Efficacy” (J Nat Prod, 2021).
Active and inactive are the calls of the source. The rule behind the calls is not given here.

Legend:
[1] = Drug uptake in MOG (35 to 55 residues)-induced experimental autoimmune encephalomyelitis mouse aerosol at 50 microg/L by LC-MS/MS analysis; assay type: ADME; details: in vivo, inhaled_or_intranasal, dose 50 µg/L
Mus musculus [2] = test: Antiinflammatory activity LPS induced mouse model assessed as reduction in IL-9 at 1 to 5 mg/kg, ip preincubated for 1 hr followed by LPS stimulation and measured after 2 hrs by luminex xMAP bead based assay; assay type: functional, organism-based; details: dose 1-5 mg/kg, time 3.0 hrs
Mus musculus [3] = test: Antiinflammatory activity LPS induced mouse model assessed as reduction in macrophage inflammatory protein-1alpha at 1 to 5 mg/kg, ip preincubated for 1 hr followed by LPS stimulation and measured after 2 hrs by luminex xMAP bead based assay; assay type: functional, organism-based; details: dose 1-5 mg/kg, time 3.0 hrs
Rattus norvegicus [4] = test: Antiinflammatory activity in carrageenan-induced paw edema rat model assessed as recovery of adverse effect at tremor at 5 mg/kg, ip or 20 mg/kg administered daily via whole body inhalation; assay type: functional, organism-based
[5] = Drug uptake in MOG (35 to 55 residues)-induced experimental autoimmune encephalomyelitis immunized mouse in plasma at 50 microg/L by LC-MS/MS analysis; assay type: ADME; details: dose 50 µg/L
Mus musculus [6] = test: Antiinflammatory activity LPS induced mouse model assessed as reduction in interferon gamma induced protein 10 at 1 to 5 mg/kg, ip preincubated for 1 hr followed by LPS stimulation and measured after 2 hrs by luminex xMAP bead based assay; assay type: functional, organism-based; details: dose 1-5 mg/kg, time 3.0 hrs
[7] = Drug uptake in rat aerosol at 2.5 microg/L via inhalation measured for 30 mins; assay type: ADME; details: in vivo, inhaled_or_intranasal, 0.5 h, route inh, dose 2.5 µg/L
Mus musculus [8] = test: Antiinflammatory activity LPS induced mouse model assessed as reduction in IL-6 level in plasma at 5 mg/kg, ip preincubated for 1 hr followed by LPS stimulation and measured after 2 hrs by ELISA method relative to control; assay type: functional; design: scale not given: the % may be the effect or the level left
[9] = Antiinflammatory activity in MOG (35 to 55 residues)-induced experimental autoimmune encephalomyelitis mouse aerosol assessed as reduction in clinical score at 25 microg/L measured on 16 day (reference value: 2.0); assay type: ADME; details: inhaled_or_intranasal, 384 h, dose 25 µg/L
[10] = Half life in rat at 2.73 mg/kg via inhalation; assay type: ADME, organism-based; details: in vivo, inhaled or intranasal, route inh
Mus musculus [11] = test: Antiinflammatory activity ip/LPS induced mouse model assessed as reduction in IL-6 level in plasma preincubated for 1 hr followed by LPS stimulation and measured after 2 hrs by ELISA method; assay type: functional, organism-based; details: dose 1-5 mg/kg, time 3.0 hrs, DDE = dose-dependent effect
[12] = Tmax in Wistar rat plasma at 5 mg/kg, ip administered as bolus dose measured after 5 to 360 mins by LC-MS/MS analysis; assay type: ADME, organism-based; details: time 5-360 min
[13] = AUC in rat at 2.73 mg/kg via inhalation; assay type: ADME, organism-based; design: dose 2.73 mg/kg, route inh; details: in vivo, inhaled or intranasal
Mus musculus [14] = test: Antiinflammatory activity in LPS induced mouse model assessed as reduction in tumor necrosis factor alpha level in plasma at 5 mg/kg, ip preincubated for 1 hr followed by LPS stimulation and measured after 2 hrs by ELISA method relative to control; assay type: functional; design: scale not given: the % may be the effect or the level left
[15] = Tmax in Wistar rat plasma at 2 mg/kg, iv administered as bolus dose measured after 5 to 360 mins by LC-MS/MS analysis; assay type: ADME, organism-based; details: time 5-360 min
[16] = AUC in Wistar rat plasma at 1 mg/kg, iv administered as bolus dose measured after 5 to 360 mins by LC-MS/MS analysis; assay type: ADME, organism-based; design: time upper 360 min, time lower 5 min, dose 1 mg/kg, route iv
[17] = Clearance in Wistar rat plasma at 1 mg/kg, iv administered as bolus dose measured after 5 to 360 mins by LC-MS/MS analysis; assay type: ADME, organism-based; details: in vivo, time 5-360 min
[18] = Drug concentration in carrageenan-induced paw edema in rat respiratory tract at 77.9 microg/L via inhalation measured for 30 mins; assay type: ADME; details: inhaled or intranasal, route inh, dose 77.9 µg/L, read-out: Drug uptake
[19] = Half life in rat at 0.40 mg/kg via inhalation; assay type: ADME, organism-based; details: in vivo, inhaled or intranasal, route inh, dose 0.4 mg/kg
[20] = AUC in C57BL/6 plasma at 2 mg/kg, ip measured after 3 to 240 mins by LC-MS/MS analysis; assay type: ADME, organism-based; design: time 3-240 min, dose 2 mg/kg, route ip; details: C57BL/6, mouse
Mus musculus [21] = species on record: Mus musculus; test: Antiinflammatory activity in MOG (35 to 55 residues)-induced experimental autoimmune encephalomyelitis mouse aerosol assessed as attenuation of body weight loss at 50 microg/L; assay type: functional, organism-based; details: dose 50.0 µg/L
[22] = Ratio of Cmax in C57BL/6 mouse brain to plasma at 2 mg/kg, ip measured after 3 to 240 mins by LC-MS/MS analysis; assay type: ADME, organism-based; details: brain and plasma, time 3-240 min, read-out: BPR
Mus musculus [23] = test: Antiinflammatory activity LPS induced mouse model assessed as reduction in granulocyte-macrophage colony stimulating factor at 1 to 5 mg/kg, ip preincubated for 1 hr followed by LPS stimulation and measured after 2 hrs by luminex xMAP bead based assay; assay type: functional, organism-based; details: dose 1-5 mg/kg, time 3.0 hrs
Rattus norvegicus [24] = test: Antiinflammatory activity in carrageenan-induced paw edema rat model assessed as inhibition of paw swelling at 5.34 mg/kg via inhalation measured at 2 hrs relative to control; assay type: functional; design: scale not given: the % may be the effect or the level left; details: route inh
[25] = Drug uptake in MOG (35 to 55 residues)-induced experimental autoimmune encephalomyelitis mouse aerosol at 25 microg/L by LC-MS/MS analysis; assay type: ADME; details: in vivo, inhaled_or_intranasal, dose 25 µg/L
[26] = Cmax in rat at 0.40 mg/kg via inhalation; assay type: ADME, organism-based; design: dose 0.4 mg/kg, route inh; details: in vivo, inhaled or intranasal, 0.4 mg/kg
[27] = Drug uptake in rat aerosol at 261.4 microg/L via inhalation measured for 30 mins; assay type: ADME; details: in vivo, inhaled_or_intranasal, 0.5 h, dose 261.4 µg/L
[28] = Bioavailability in Wistar rat plasma at 1 mg/kg, iv administered as bolus dose measured after 5 to 360 mins by LC-MS/MS analysis; assay type: ADME, organism-based; details: in vivo, time 5-360 min
[29] = Bioavailability in rat at 0.40 mg/kg via inhalation; assay type: ADME, organism-based; details: in vivo, inhaled or intranasal, route inh, dose 0.4 mg/kg
[30] = Cmax in rat at 0.06 mg/kg via inhalation; assay type: ADME, organism-based; design: dose 0.06 mg/kg, route inh; details: in vivo, inhaled or intranasal
Mus musculus [31] = test: Antiinflammatory activity LPS induced mouse model assessed as reduction in macrophage inflammatory protein-1 beta at 1 to 5 mg/kg, ip preincubated for 1 hr followed by LPS stimulation and measured after 2 hrs by luminex xMAP bead based assay; assay type: functional, organism-based; details: dose 1-5 mg/kg, time 3.0 hrs
[32] = Half life in Wistar rat plasma at 2 mg/kg, iv administered as bolus dose measured after 5 to 360 mins by LC-MS/MS analysis; assay type: ADME, organism-based; details: time 5-360 min
[33] = Drug uptake in MOG (35 to 55 residues)-induced experimental autoimmune encephalomyelitis unimmunized mouse in plasma at 50 microg/L by LC-MS/MS analysis; assay type: ADME; details: dose 50 µg/L
Mus musculus [34] = test: Antiinflammatory activity in ip induced Wistar mouse model of carrageenan-induced paw edema assessed as reduction in paw thickness administered 10 mins prior to carrageenan induction and measured upto 5 hrs; assay type: functional, organism-based; details: dose 1-5 mg/kg, time 310.0 min, DDE = dose-dependent effect
[35] = Drug concentration in carrageenan-induced paw edema in rat respiratory tract at 230.7 microg/L via inhalation measured for 30 mins; assay type: ADME; details: inhaled or intranasal, route inh, dose 230.7 µg/L, read-out: Drug uptake
Mus musculus [36] = test: Antiinflammatory activity ip /LPS induced mouse model assessed as upregulation of IL-10 level preincubated for 1 hr followed by LPS stimulation and measured after 2 hrs by luminex xMAP bead based assay; assay type: functional, organism-based; details: dose 1-5 mg/kg, time 3.0 hrs, DDE = dose-dependent effect

For `C1=CCC(c2cccnc2)NC1` (stereo unspecified), the Drug uptake [1] was 50.6 ng/mL, the Activity (Mus musculus [2]) was “Active” and the Activity (Mus musculus [3]) was “Active”. The Activity (Rattus norvegicus [4]) was “Active”, the Cp [5] was 1139.7 ng/mL and the Activity (Mus musculus [6]) was “Active”. It also gave a Drug uptake [7] of 2.5 µg/L, an Activity (Mus musculus [8]) of 47.2% and an Activity [9] of 1.1. For the same compound, the half-life [10] was 218 min, the Activity (Mus musculus [11]) was “Dde” and the Tmax [12] was 9.6 min. It also gave an AUC [13] of 3060 ng·h/mL, an Activity (Mus musculus [14]) of 34% and a Tmax [15] of 9.6 min. The AUC [16] was 1990 ng·h/mL, the CL [17] was 8.11 µL/min/kg and the concentration at 0.5 h [18] was 0.87 ng/mL. For the same compound, the half-life [19] was 230 min, the AUC [20] was 430 ng·h/mL and the Activity (Mus musculus [21]) was “Active”. For the same compound, the Kp [22] was 2.5, the Activity (Mus musculus [23]) was “Active” and the Activity (Rattus norvegicus [24]) was 39.6%. The Drug uptake [25] was 24.8 ng/mL, the Cmax [26] was 160 ng/mL and the Drug uptake [27] was 250 µg/L. It also gave an F [28] of 100%, a bioavailability [29] of 80.1% and a Cmax [30] of 20 ng/mL. The Activity (Mus musculus [31]) was “Active”, the half-life [32] was 83.4 min and the Cp [33] was 1202.5 ng/mL. For the same compound, the Activity (Mus musculus [34]) was “Dde”, the concentration at 0.5 h [35] was 2.42 ng/mL and the Activity (Mus musculus [36]) was “Dde”.
